The target of one assay is T1, Human GPR120 short form (Homo sapiens, UniProt Q5NUL3).
T1 construct: expressed in transfected cells
T1 sequence (Q5NUL3 1-361): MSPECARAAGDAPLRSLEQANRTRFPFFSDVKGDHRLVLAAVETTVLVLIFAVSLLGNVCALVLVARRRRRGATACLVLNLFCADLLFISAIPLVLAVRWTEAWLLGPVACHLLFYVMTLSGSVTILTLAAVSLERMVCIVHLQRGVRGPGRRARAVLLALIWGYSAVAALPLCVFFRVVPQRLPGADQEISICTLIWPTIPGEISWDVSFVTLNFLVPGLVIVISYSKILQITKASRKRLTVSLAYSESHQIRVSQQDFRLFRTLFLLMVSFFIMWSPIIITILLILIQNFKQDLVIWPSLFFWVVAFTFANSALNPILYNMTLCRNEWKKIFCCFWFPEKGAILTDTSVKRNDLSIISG
Nature of the assay: Human GPR120 calcium flux assay, Procedure Calcium B (4200 cells/well). The assay is classed as cell-based. In short, it runs like this:
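HEK293 cells stably expressing human GPR120 (NM_001195755.1), 4200 cells/well, starved 1 h and loaded with Fluo-4 NW plus probenecid. Ligand-evoked calcium flux read on FLIPR for 300 s after a 10 s baseline. RFU = Fmax−Fmin; EC50 from four-parameter concentration-response fit.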
(In general: A change in cytosolic calcium serves as a functional read-out for many receptors and channels.)

The target in a further assay is T2, human GPR40 (Homo sapiens, UniProt O14842).
T2 construct: expressed in transfected cells
Kind of assay: GPR40 calcium flux assay, human GPR40. The conditions noted are these: HEK293 cells stably expressing GPR40; table does not say human or rat. In kind it is cell-based. Put shortly:
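Cells preincubated 1 h at 37° C. in HBSS, 20 mM HEPES, 0.1% BSA, then Fluo 8 calcium dye 30 min at 37° C. and 15 min at room temperature.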

T2 sequence (O14842 whole entry): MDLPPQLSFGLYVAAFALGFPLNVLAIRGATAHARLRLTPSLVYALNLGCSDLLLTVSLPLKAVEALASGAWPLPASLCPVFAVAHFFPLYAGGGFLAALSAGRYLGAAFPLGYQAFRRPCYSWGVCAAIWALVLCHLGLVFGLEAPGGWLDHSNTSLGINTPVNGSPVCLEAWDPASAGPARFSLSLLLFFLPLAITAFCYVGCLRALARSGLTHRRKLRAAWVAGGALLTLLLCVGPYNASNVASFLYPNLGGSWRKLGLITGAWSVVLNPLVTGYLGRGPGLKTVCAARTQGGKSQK

As a reminder, the EC50 is the concentration that produces a half-maximal response. On to `O=C(O)CCc1ccc(OCC2=C(C3CCCC3)CC(F)(F)C2)cc1Cl` [Compound 409, 3-[2-chloro-4-[(2-cyclopentyl-4,4-difluoro-cyclopenten-1-yl)methoxy]phenyl]Propanoic Acid], for which the results for the EC50 at Human GPR120 short form and on human GPR40 were 86 nM and 25 nM, respectively.
In the same order, the values of `O=C(O)CCc1ccc(OCC2=C(C3CCCC3)CCC(F)(F)C2)cc1Cl` [Compound 607, 3-[2-chloro-4-[(2-cyclopentyl-5,5-difluoro-cyclohexen-1-yl)methoxy]phenyl]Propanoic Acid] are 148 nM and 325 nM.
For `O=C(O)CCc1ccc(OCC2=C(C3CCCC3)CCCC2)cc1C(F)(F)F` [Compound 603, 3-[4-[(2-cyclopentylcyclohexen-1-yl)methoxy]-2-(trifluoromethyl)phenyl]Propanoic Acid] the same measures were 1970 nM and 185 nM.
In the same order, the values of `O=C(O)CCc1ccc(OCC2=C(C3CCCC3)CCC2)cc1Br` [Compound 421, 3-[2-bromo-4-[(2-cyclopentylcyclopenten-1-yl)methoxy]phenyl]Propanoic Acid] are 222 nM and 25 nM.
On to `Cc1ccc(F)c(C2=C(COc3ccc(CCC(=O)O)c(Cl)c3)CCC2)c1` [Compound 343, 3-[2-chloro-4-[[2-(2-fluoro-5-methyl-phenyl)cyclopenten-1-yl]methoxy]phenyl]Propanoic Acid], for which the EC50 on Human GPR120 short form is 1380 nM; on human GPR40, 1100 nM.
In the case of `CCCC#CC1=C(COc2ccc(CCC(=O)O)cc2)CCC1` [Compound 233], the EC50 is 752 nM at Human GPR120 short form and 2930 nM on human GPR40.
For `N#Cc1cc(OCC2=C(c3ccc(F)cc3)CC(F)(F)C2)ccc1CCC(=O)O` [Compound 207, 3-[2-cyano-4-[[4,4-difluoro-2-(4-fluorophenyl)cyclopenten-1-yl]methoxy]phenyl]Propanoic Acid] the same measures were 2100 nM and 1200 nM.
For `COc1ccc(C2=C(COc3ccc(CCC(=O)O)c(C(F)(F)F)c3)CCC2)cc1` [Compound 301, 3-[4-[[2-(4-methoxyphenyl)cyclopenten-1-yl]methoxy]-2-(trifluoromethyl)phenyl]Propanoic Acid] the same measures were 1530 nM and 448 nM.
For `CC(C)CC1=C(COc2ccc(CCC(=O)O)cc2)CCC1` [Compound 384, 3-[4-[(2-isobutylcyclopenten-1-yl)methoxy]phenyl]Propanoic Acid] the same measures were 677 nM and 635 nM.
As for `Cc1cc(OCC2=C(C3CCCC3)CCC2)c(F)cc1CCC(=O)O` [Compound 424, 3-[4-[(2-cyclopentylcyclopenten-1-yl)methoxy]-5-fluoro-2-methyl-phenyl]Propanoic Acid], the results for the EC50 at Human GPR120 short form and on human GPR40 were 245 nM and 248 nM, respectively.
In the same order, the values of `O=C(O)CCc1ccc(OCC2=C(C3C=CCC3)CCC2)cc1C(F)(F)F` (stereo not shown) [Compound 453, 3-[4-[(2-cyclopent-2-en-1-ylcyclopenten-1-yl)methoxy]-2-(trifluoromethyl)phenyl]Propanoic Acid] are 181 nM and 10 nM.
In the same order, the values of `O=C(O)CCc1ccc(OCC2=C(C3CC4CCC3C4)CCC2)cc1C(F)(F)F` (stereo not shown) [Compound 390, 3-[4-[(2-norbornan-2-ylcyclopenten-1-yl)methoxy]-2-(trifluoromethyl)phenyl]Propanoic Acid] are 1190 nM and 23 nM.
For `CCCCC1=C(COc2ccc(CCC(=O)O)c(C(F)(F)F)c2)CCCC1` [Compound 598, 3-[4-[(2-butylcyclohexen-1-yl)methoxy]-2-(trifluoromethyl)phenyl]Propanoic Acid] the same measures were 399 nM and 177 nM.
Consider `O=C(O)CCc1ccc(OCC2=C(C3CCCC3)CCC2)c(F)c1C(F)(F)F` [Compound 435, 3-[4-[(2-cyclopentylcyclopenten-1-yl)methoxy]-3-fluoro-2-(trifluoromethyl)phenyl]Propanoic Acid], for which the EC50 at Human GPR120 short form is above 5000 nM; on human GPR40, above 10000 nM.
In the same order, the values of `Cc1ccc(CC2=C(COc3ccc(CCC(=O)O)c(C(F)(F)F)c3)CCC2)cc1` [Compound 345, 3-[4-[[2-(p-tolylmethyl)cyclopenten-1-yl]methoxy]-2-(trifluoromethyl)phenyl]Propanoic Acid] are 3020 nM and 67 nM.
For `Cc1ccc(C2=C(COc3ccc(CCC(=O)O)c(Cl)c3)CCC2)cc1` [Compound 310, 3-[2-chloro-4-[[2-(p-tolyl)cyclopenten-1-yl]methoxy]phenyl]Propanoic Acid] the same measures were 209 nM and 1120 nM.
In the same order, the values of `O=C(O)CCc1ccc(OCC2=C(C3CC4CCC3C4)CCCC2)cc1Cl` (stereo not shown) [Compound 593, 3-[2-chloro-4-[(2-norbornan-2-ylcyclohexen-1-yl)methoxy]phenyl]Propanoic Acid] are above 5000 nM and 1300 nM.
Take `COc1cc(OCC2=C(C3CCCC3)CCC2)ccc1CCC(=O)O` [Compound 434, 3-[4-[(2-cyclopentylcyclopenten-1-yl)methoxy]-2-methoxy-phenyl]Propanoic Acid]: the figures for the EC50 at Human GPR120 short form and at human GPR40 were 387 nM and 59 nM, respectively.
Regarding `Cc1cccc(CC2=C(COc3ccc(CCC(=O)O)c(Cl)c3)CCC2)c1` [Compound 406, 3-[2-chloro-4-[[2-(m-tolylmethyl)cyclopenten-1-yl]methoxy]phenyl]Propanoic Acid], the results for the EC50 on Human GPR120 short form and on human GPR40 were above 5000 nM and 152 nM, respectively.
In the same order, the values of `Cc1ccc(CC2=C(COc3ccc(CCC(=O)O)c(Cl)c3)CCC2)cc1` [Compound 348, 3-[2-chloro-4-[[2-(p-tolylmethyl)cyclopenten-1-yl]methoxy]phenyl]Propanoic Acid] are 2360 nM and 57 nM.
In the same order, the values of `O=C(O)CCc1cc(F)c(OCC2=C(C3CCCC3)CCC2)cc1C(F)(F)F` [Compound 433, 3-[4-[(2-cyclopentylcyclopenten-1-yl)methoxy]-5-fluoro-2-(trifluoromethyl)phenyl]Propanoic Acid] are above 5000 nM and above 10000 nM.
In the same order, the values of `Cc1cc(OCC2=C(c3ccccc3)CCC2)c(F)cc1CCC(=O)O` [Compound 277, 3-[5-fluoro-2-methyl-4-[(2-phenylcyclopenten-1-yl)methoxy]phenyl]Propanoic Acid] are 799 nM and 2680 nM.
Regarding `O=C(O)CCc1ccc(OCC2=C(C3CCCC3)CCC(F)(F)CC2)cc1F` [Compound 610, 3-[4-[(2-cyclopentyl-5,5-difluoro-cyclohepten-1-yl)methoxy]-2-fluoro-phenyl]Propanoic Acid], the EC50 at Human GPR120 short form worked out at 302 nM; at human GPR40, 267 nM.
Consider `O=C(O)CCc1ccc(OCC2=C(C(=O)c3ccccc3)CCC2)cc1C(F)(F)F` [Compound 403, 3-[4-[(2-benzoylcyclopenten-1-yl)methoxy]-2-(trifluoromethyl)phenyl]Propanoic Acid], for which the values for the EC50 on Human GPR120 short form and at human GPR40 were 1490 nM and 1140 nM, respectively.
For `COc1cc(C)ccc1C1=C(COc2ccc(CCC(=O)O)cc2)CCC1` [Compound 255] the same measures were above 5000 nM and 1300 nM.
For the compound `Cc1ccc(C2=C(COc3ccc(CCC(=O)O)cc3)CCC2)cc1O` [Compound 234], the EC50 on Human GPR120 short form was 1140 nM; at human GPR40, above 5000 nM.
In the same order, the values of `CC1CCC(c2ccccc2)=C1COc1ccc(CCC(=O)O)cc1` (stereo not shown) [Compound 366, 3-[4-[(5-methyl-2-phenyl-cyclopenten-1-yl)methoxy]phenyl]Propanoic Acid] are 1140 nM and above 10000 nM.
For `Cc1c(CCC(=O)O)ccc(OCC2=C(c3ccc(Cl)cc3)CCC(F)(F)CC2)c1C` [Compound 616, 3-[4-[[2-(4-chlorophenyl)-5,5-difluoro-cyclohepten-1-yl]methoxy]-2,3-dimethyl-phenyl]Propanoic Acid] the same measures were 166 nM and 3550 nM.
Turning to `O=C(O)CCc1cc(F)c(OCC2=C(C3CCCC3)CCC2)cc1Cl` [Compound 450, 3-[2-chloro-4-[(2-cyclopentylcyclopenten-1-yl)methoxy]-5-fluoro-phenyl]Propanoic Acid], the results for the EC50 on Human GPR120 short form and at human GPR40 were 273 nM and 118 nM, respectively.
In the same order, the values of `Cc1cc(OCC2=C(Cc3ccccc3)CC(F)(F)C2)c(F)cc1CCC(=O)O` [Compound 357, 3-[4-[(2-benzyl-4,4-difluoro-cyclopenten-1-yl)methoxy]-5-fluoro-2-methyl-phenyl]Propanoic Acid] are 664 nM and 653 nM.
For `[2H]C([2H])([2H])c1ccc(C2=C(COc3ccc(CCC(=O)O)c(Cl)c3)CCC2)cc1` [Compound 302-D, 3-[2-chloro-4-[[2-[4-(trideuteriomethyl)phenyl]cyclopenten-1-yl]methoxy]phenyl]Propanoic Acid] the same measures were 160 nM and 952 nM.
For `O=C(O)CCc1c(F)cc(OCC2=C(C3CCCC3)CCC2)cc1C(F)(F)F` [Compound 439, 3-[4-[(2-cyclopentylcyclopenten-1-yl)methoxy]-2-fluoro-6-(trifluoromethyl)phenyl]Propanoic Acid] the same measures were above 5000 nM and above 10000 nM.

For the origin of these results see US11230526B1, “Cylcoalkenyl derivatives useful as agonists of the GPR120 and/or GPR40 receptors” (Janssen Pharmaceutica NV, priority 2018, dated 2022).
